# Test results from US20250002970A1, “A[…] LABELING FOR DETECTION OF BACTERIAL VIABILITY, GROWTH AND ANTIBIOTIC SUSCEPTIBILITY” (University of Massachusetts, priority 2021, published 2025).
# Tested on: S. aureus
# Experiment: Sandwich ELISA readout of growth-dependent metabolic labeling (biotin-D-lysine probe incorporation) +/- antibiotic
# Type: cell-based, Staphylococcus aureus
# Conditions: S. aureus +/- vancomycin; FIG. 4
# Method: FIG. 4. ELISA can be used as a rapid readout for antibiotic susceptibility. S. aureus was incubated+/−antibiotic for 20 min then with cell envelope probe for an additional 10 min. Probe incorporation was quantitated by sandwich ELISA (absorbance, OD450).
# Bacterial strains and growth conditions. Staphylococcus aureus was grown in brain heart infusion broth (BHI; BD BBL, Sparks, MD.). Escherichia coli K-12 was grown in Luria Bertani broth (LB; Apex Research Products, El Cajon, CA). All bacteria were initially grown by shaking at 37° C. overnight.
# Cell wall labeling. Bacterial cultures were back diluted in their respective media and grown at 37° C. until the mid-log phase (OD600=0.3 for S. aureus; OD600=0.35 for E. coli); for concentration dependency experiments the starting OD600 for each sample varied. Where appropriate, cultures were treated with freshly prepared ampicillin (100 μg/mL; Fisher Bioreagents, Fair Lawn, NJ) or vancomycin (100 μg/mL; Alfa Aesar, Ward Hill, MA) and incubated on a shaker at 37° C. for 90 minutes.
# Growing bacteria were labeled with biotin D-lysine (Chem-Impex International, Wood Dale, IL; reagent was deprotected first). Unless otherwise indicated, they were labeled with 1 mM biotin-D-lysine shaking at 37° C. for 20 (S. aureus) or 30 (E. coli) minutes. […]
# ELISA experiment. […] The absorbance was measured at 450 nm with a BioTek Plate Reader.
structure (smiles),measurement,value
CN[C@H](CC(C)C)C(=O)N[C@H]1C(=O)N[C@@H](CC(N)=O)C(=O)N[C@H]2C(=O)N[C@H]3C(=O)N[C@H](C(=O)N[C@H](C(=O)O)c4cc(O)cc(O)c4-c4cc3ccc4O)[C@H](O)c3ccc(c(Cl)c3)Oc3cc2cc(c3O[C@@H]2O[C@H](CO)[C@@H](O)[C@H](O)[C@H]2O[C@H]2C[C@](C)(N)[C@H](O)[C@H](C)O2)Oc2ccc(cc2Cl)[C@H]1O [vancomycin],"ELISA readout of probe incorporation (absorbance, OD450) with versus without antibiotic",can discriminate between S. aureus+/−vancomycin
